This is an account of results in ChEMBL document CHEMBL1136572, “Piperazine-based CCR5 antagonists as HIV-1 inhibitors. III: synthesis, antiviral and pharmacokinetic profiles of symmetrical heteroaryl carboxamides” (Bioorg Med Chem Lett, 2003).

In data set [1] the target is C-C chemokine receptor type 5 (Homo sapiens, UniProt P51681). The data set is described as follows: Ability to inhibit [125I]-labeled RANTES binding to the CCR5 receptor expressed in membrane preparations from CHO cells. It is filed as cell membranes.
Data set [2] concerns U-87 MG. The data set is described as follows: Compound was tested for inhibiting HIV (ADA) entry into cells; Range is 0.2-2.0 nM. It is filed as functional, cell-based, U-87MG ATCC. Particulars: Homo sapiens.
The next data set has as its system BaF3. Description: Inhibition of 0.1 nM of MIP-1beta induced migration of recombinant mouse pro-B cell line BA/F3 expressing human CCR5. Format: functional, cell-based.
The target in data set [3] is T1, Muscarinic acetylcholine receptor M2 (Homo sapiens, UniProt P08172).
T1 sequence (P08172 whole entry): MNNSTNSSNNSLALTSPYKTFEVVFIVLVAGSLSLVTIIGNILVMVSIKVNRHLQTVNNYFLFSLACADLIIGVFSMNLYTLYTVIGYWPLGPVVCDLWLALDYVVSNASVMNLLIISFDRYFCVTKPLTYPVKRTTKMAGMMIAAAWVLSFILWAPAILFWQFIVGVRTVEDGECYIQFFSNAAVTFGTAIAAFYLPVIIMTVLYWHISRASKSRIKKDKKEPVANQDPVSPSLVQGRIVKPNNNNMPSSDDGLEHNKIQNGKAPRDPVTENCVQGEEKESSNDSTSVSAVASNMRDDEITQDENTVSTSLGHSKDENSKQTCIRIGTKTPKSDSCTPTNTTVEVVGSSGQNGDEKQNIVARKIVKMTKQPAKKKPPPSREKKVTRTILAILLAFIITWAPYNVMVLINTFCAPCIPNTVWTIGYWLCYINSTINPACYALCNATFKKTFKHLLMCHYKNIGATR
Description: Binding affinity towards muscarinic receptor M2.

The subject of data set [4] is U-87 MG. Description: Tested for inhibiting HIV (ADA) entry into cells. Format: functional, cell-based, U-87MG ATCC. The settings on record: Homo sapiens.
Data set [5] is described as follows: Cmax value evaluated in rat. Particulars: in vivo. It is filed as ADME, organism-based.
The nature of data set [6]: Compound was tested for inhibition of HIV isolate YU-2 (hz) in peripheral blood mononuclear cells (PBMC). It is filed as functional.
Data set [7] can be described thus: Compound was tested for inhibition of HIV isolate ASM 108 (wt) in peripheral blood mononuclear cells (PBMC). Format: functional.
Data set [8] concerns the target T1, Muscarinic acetylcholine receptor M2. The data set is described as follows: Inhibition of binding affinity to muscarinic receptor M2.
Data set [9] can be described thus: Compound was tested for inhibition of HIV isolate 301657 (hz) in peripheral blood mononuclear cells (PBMC). Format: functional.
Data set [10] in a line: Oral bioavailability evaluated in rat. Format: ADME, organism-based. The settings on record: in vivo.
The nature of data set [11]: Compound was tested for inhibition of HIV isolate US-1 in peripheral blood mononuclear cells (PBMC). Format: functional.
A short description of data set [12]: Compound was tested for inhibition of HIV isolate 301657 (wt) in peripheral blood mononuclear cells (PBMC). It is filed as functional.
A short description of data set [13]: Ratio of AUCbrain to AUCplasma. It is filed as ADME, organism-based. Particulars: rat, brain and plasma.
Data set [14] can be described thus: Compound was tested for inhibition of HIV isolate JV 1083 in peripheral blood mononuclear cells (PBMC). It is filed as functional.
Data set [15] can be described thus: Compound was tested for inhibition of HIV isolate YU-2 (wt) in peripheral blood mononuclear cells (PBMC). Format: functional.
Data set [16] can be described thus: Cmax value evaluated in monkey. Format: ADME, organism-based. The settings on record: cercopithecidae, in vivo.
The nature of data set [17]: Compound was tested for inhibition of HIV isolate bal (hz) in peripheral blood mononuclear cells (PBMC). Format: functional.
Data set [18] can be described thus: Compound was tested for inhibition of HIV isolate BCF01 in peripheral blood mononuclear cells (PBMC). Format: functional.
The nature of data set [19]: Oral bioavailability evaluated in monkey. It is filed as ADME, organism-based. The settings on record: cercopithecidae, in vivo.
The nature of data set [20]: Compound was tested for inhibition of HIV isolate ASM 108 (hz) in peripheral blood mononuclear cells (PBMC). Format: functional.
The test system of data set [21] is Rattus norvegicus. Description: Dose required for observing CNS and GI effects in rats after peroral administration. Format: functional.
Data set [22] concerns U-87 MG. Description: Compound was tested for inhibiting HIV (ADA) entry into U-87 cells; range is 2-20 nM. It is filed as functional, cell-based, U-87MG ATCC. The settings on record: Homo sapiens.
Data set [23] relates to Rattus norvegicus. The data set is described as follows: Dose required for observing cardiovascular effects in rats after peroral administration. Format: functional, Heart.
Data set [24] deals with T2, Muscarinic acetylcholine receptor M1 (Homo sapiens, UniProt P11229).
T2 sequence (P11229 whole entry): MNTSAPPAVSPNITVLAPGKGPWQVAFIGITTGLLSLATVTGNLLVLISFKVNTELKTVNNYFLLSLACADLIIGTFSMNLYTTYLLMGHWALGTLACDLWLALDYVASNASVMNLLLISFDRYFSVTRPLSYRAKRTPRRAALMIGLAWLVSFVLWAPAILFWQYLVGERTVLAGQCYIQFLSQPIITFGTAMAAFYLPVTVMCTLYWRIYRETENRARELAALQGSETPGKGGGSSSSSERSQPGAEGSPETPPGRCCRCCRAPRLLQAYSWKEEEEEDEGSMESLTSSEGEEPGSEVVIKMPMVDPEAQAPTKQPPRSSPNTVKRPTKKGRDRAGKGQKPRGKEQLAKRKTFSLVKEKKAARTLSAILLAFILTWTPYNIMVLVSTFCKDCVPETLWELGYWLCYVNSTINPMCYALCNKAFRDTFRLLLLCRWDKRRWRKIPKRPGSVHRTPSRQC
Description: Binding affinity towards muscarinic receptor M1.

C-C chemokine receptor type 5, sequence (P51681 whole entry): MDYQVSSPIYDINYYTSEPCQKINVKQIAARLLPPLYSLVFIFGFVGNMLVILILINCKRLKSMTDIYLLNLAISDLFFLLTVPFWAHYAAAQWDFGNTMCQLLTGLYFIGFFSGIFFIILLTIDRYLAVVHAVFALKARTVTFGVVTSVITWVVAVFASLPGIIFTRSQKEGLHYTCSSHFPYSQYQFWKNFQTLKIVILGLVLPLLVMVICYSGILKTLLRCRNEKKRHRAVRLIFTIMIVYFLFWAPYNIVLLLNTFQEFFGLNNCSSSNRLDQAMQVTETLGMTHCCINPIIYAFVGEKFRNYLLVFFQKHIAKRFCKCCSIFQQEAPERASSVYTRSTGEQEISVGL

Compound `Cc1ccnc(C)c1C(=O)N1CCC(C)(N2CCN([C@@H](C)c3ccc(C(F)(F)F)cc3)[C@@H](C)C2)CC1` yielded a Ki in data set [1] of 2 nM. The IC50 in the data set on U-87 MG [2] came to 0.2 nM; in the data set on BaF3 it was 0.03 nM.

In the case of `Cc1cncc(C)c1C(=O)N1CCC(C)(N2CCN([C@@H](C)c3ccc(C(F)(F)F)cc3)[C@@H](C)C2)CC1`, the inhibitory constant (Ki) in data set [1] is 5.23 nM; in [3] it was 1680 nM.

As to `Cc1nc(N)nc(C)c1C(=O)N1CCC(C)(N2CCN([C@@H](C)c3ccc(C(F)(F)F)cc3)[C@@H](C)C2)CC1`, the Ki in data set [1] came out at 38 nM; in data set [3] it was 1100 nM.

As for `COc1nc(C)c(C(=O)N2CCC(C)(N3CCN([C@@H](C)c4ccc(C(F)(F)F)cc4)[C@@H](C)C3)CC2)c(C)n1`, the Ki stood at 11 nM in [1] and 202 nM in data set [3].

For `C[C@H]1CN(C2(C)CCN(C(=O)c3c(Cl)cncc3Cl)CC2)CCN1[C@@H](C)c1ccc(C(F)(F)F)cc1`, the Ki in data set [1] is 0.7 nM; in data set [3], 2030 nM. Moreover, 0.3 nM corresponded to half-maximal inhibition in the data set on U-87 MG [4] (IC50).

In the case of `Cc1c[n+]([O-])cc(C)c1C(=O)N1CCC(C)(N2CCN([C@@H](C)c3ccc(C(F)(F)F)cc3)[C@@H](C)C2)CC1`, the inhibition constant Ki is 18 nM in data set [1] and 255 nM in [3]. In addition, inhibition in the data set on U-87 MG [4] was half-maximal at 0.9 nM (IC50).

Turning to `Cc1ncnc(C)c1C(=O)N1CCC(C)(N2CCN([C@@H](C)c3ccc(C(F)(F)F)cc3)[C@@H](C)C2)CC1`, the peak concentration (Cmax) in data set [5] was determined as 1490 ng/mL; in data set [16], 340 ng/mL. The IC50 in [6] came out at 1.3 nM; in data set [7], 7 nM; in data set [9], 26.8 nM; in [11] it was 0.7 nM; in the data set with U-87 MG [4], 0.5 nM; in [12] it was 3.2 nM. Also, the IC50 amounted to 166 nM in [14]; 2.3 nM in [15]; 6.4 nM in [17]; 200 nM in [18]; 0.2 nM in [20]. The IC90 in [6] (Human immunodeficiency virus 1) was 100 nM; in [7] (Human immunodeficiency virus 1), 17 nM; in data set [9] (Human immunodeficiency virus 1) it was over 1000 nM; in data set [11] (Human immunodeficiency virus 1) it was 4 nM; in [12] (Human immunodeficiency virus 1), 24 nM; in data set [14] (Human immunodeficiency virus 1) it was over 300 nM. The 90% effect concentration (IC90) in data set [15] (Human immunodeficiency virus 1) was 8 nM; in [17] (Human immunodeficiency virus 1), 60 nM; in data set [18] (Human immunodeficiency virus 1) it was over 1000 nM; in data set [20] (Human immunodeficiency virus 1) it was 3 nM. The Ki in data set [8] and in data set [3] was 456 nM each time. Also, the figures for the bioavailability in data set [10] and in data set [19] were 97% and 50%, respectively. Also, the partition ratio (Kp) in data set [13] worked out at 1.7.

With `Cc1cc[n+]([O-])c(C)c1C(=O)N1CCC(C)(N2CCN([C@@H](C)c3ccc(C(F)(F)F)cc3)[C@@H](C)C2)CC1`, the Dose in the data set on Rattus norvegicus [21] stood at 30 mg/kg; with Rattus norvegicus [23], 10 mg/kg. Besides, the 50% inhibitory concentration (IC50) in the data set with U-87 MG [22] was determined as 2 nM; in the data set on BaF3 it was 0.1 nM. This compound also gave a Ki in [24] of 350 nM.

For the compound `C[C@H]1CN(C2(C)CCN(C(=O)c3c(Cl)c[n+]([O-])cc3Cl)CC2)CCN1[C@@H](C)c1ccc(C(F)(F)F)cc1`, the Ki in data set [1] is 2.7 nM; in data set [3], 348 nM. Also, 0.45 nM corresponded to half-maximal inhibition with U-87 MG [4] (IC50).

Regarding `Cc1nc(C(F)(F)F)nc(C)c1C(=O)N1CCC(C)(N2CCN([C@@H](C)c3ccc(C(F)(F)F)cc3)[C@@H](C)C2)CC1`, the Ki amounted to 10 nM in data set [1] and 613 nM in [3]. The compound further gave an IC50 in the data set with U-87 MG [4] of 0.1 nM.

Turning to `Cc1nc(C)c(C(=O)N2CCC(C)(N3CCN([C@@H](C)c4ccc(C(F)(F)F)cc4)[C@@H](C)C3)CC2)c(C)n1`, the Ki in data set [1] came to 10 nM; in [3], 985 nM. The same compound showed an IC50 in the data set on U-87 MG [4] of 1.45 nM.

With `Cc1nc(-c2ccccc2)nc(C)c1C(=O)N1CCC(C)(N2CCN([C@@H](C)c3ccc(C(F)(F)F)cc3)[C@@H](C)C2)CC1`, the results for the Ki in data set [1] and in [3] were 12 nM and 1230 nM, respectively. The compound further showed an IC50 with U-87 MG [4] of 1.8 nM.

Consider `Cc1ncnc(C)c1C(=O)N1CCC(C)(N2CCN([C@@H](C)c3ccc(C#N)cc3)[C@@H](C)C2)CC1`, for which the Ki in data set [1] was 20 nM; in data set [3] it was 164 nM. Besides, the midpoint of inhibition in the data set on U-87 MG [4], the IC50, lay at 1.8 nM.

In the case of `Cc1ncnc(C)c1C(=O)N1CCC(C)(N2CCN([C@@H](C)c3ccc(OC(F)(F)F)cc3)[C@@H](C)C2)CC1`, the values for the Ki in data set [1] and in data set [3] were 11 nM and 68 nM, respectively. Also, the IC50 in the data set with U-87 MG [4] is 1.2 nM.

Take `Cc1ncnc(C)c1C(=O)N1CCC(C)(N2CCN([C@@H](C)c3ccc(I)cc3)[C@@H](C)C2)CC1`: the Ki in [1] was 11 nM; in data set [3], 169 nM.

Usually Ki stands for a measure of affinity in units of concentration, obtained from inhibition or displacement. As a reminder, the IC50 is the concentration at which inhibition is half-maximal. By Cmax is commonly meant the highest concentration seen after dosing. One may read the IC90 as the point of the concentration-response curve where the effect stands at 90%. The term bioavailability denotes dose-corrected exposure relative to a reference, in per cent. In general, Kp refers to the ratio of the level in a tissue or fluid to that in plasma or blood.
